{"source": "patent US10718028B2", "about": "“Fluorescent probes for abasic site detection” (CASE WESTERN RESERVE UIVERSITY, priority 2015, dated 2020)", "key": {"U:A-paired DNA": {"test_system": "U:A-paired DNA", "assay": "SSB activity assay control reactions", "format": "biochemical", "protocol": "SSB Activity Assay Control Reactions\nSamples were prepared in triplicate.\nAfter evaluating the fluorescence properties of Cy7MX, its ability to bind to AP sites was examined We developed an assay using a fluorescently tagged dsDNA (double stranded DNA) oligonucleotide with a single uracil incorporated into the labeled strand (FIG. 5A). A green emitting hexachlorofluorescein (HEX) label was incorporated at the 5′ end of the sense strand in order to avoid overlapping with the NIR fluorecent emission of Cy7MX. We expected that treatment of this oligomer with UDG would generate an AP site and subsequent treatment with APE would produce a single strand break. This break could be visualized by denaturing gel electrophoresis to reveal a 16mer single strand DNA (ssDNA) instead of the 40mer parent (FIG. 5B). However, we hypothesized that if the oligomer were treated with Cy7MX prior to APE treatment, the covalent Cy7MX:AP site lesion would not be recognized by APE as a substrate and no SSB would form."}, "[1]": {"assay": "Optical properties of Cy7MX in various solvents (Example 2)", "format": "physicochemical", "excerpt": "Fluorescence quantum yield measurements. Fluorescent quantum yields determined by a comparative method to an indocyanine green (ICG) standard (F=0.132 in EtOH) with refractive index correction according to the equation:\n[formula] • where F is the quantum yield; m is the slope of the integrated fluorescence intensity as a function of absorbance maxima; n is the refractive index of the solvent (EtOH, 1.3611; MeCN, 1.3442; H2O, 1.333; and CHCl3, 1.4459); and R is the reference sample, ICG in EtOH. Data were collected in a quartz cuvette with a 1 cm path length. Absorbance maxima for each sample were kept at or below 0.2 absorbance units to avoid inner filter effects. Fluorophores were excited at 700 nm and emission spectra integrated from 705 to 1000 nm. Solvents used were spectroscopic grade ethanol and HPLC grade acetonitrile, HPLC grade chloroform, and HPLC grade water. For the water solution, Cy7MX was first dissolved in MeCN and diluted at least 200 fold. SSB Activity Assay General Procedures\nThe absorption and fluorescence properties of Cy7MX were then evaluated in relatively nonpolar (CHCl3), polar aprotic (MeCN), and polar protic (EtOH and H2O) solvents. […] Likewise, the quantum yields of Cy7MX in these solvents compare favorably with other cyanine dyes (Table 3)."}, "[2]": {"assay": "Stability of Cy7MX and Cy7MX-treated samples", "format": "physicochemical"}}}
{"smiles": "CCCN1/C(=C/C=C2\\CCCC(/C=C/C3=[N+](CCC)c4ccccc4C3(C)C)=C2Oc2ccc(CC(=O)NCCCON)cc2)C(C)(C)c2ccccc21", "note": "[Cy7MX, 2-((E)-2-((E)-2-(4-(2-((3-(aminooxy)propyl)amino)-2-oxoethyl)phenoxy)-3-((E)-2-(3,3-dimethyl-1-propylindolin-2-ylidene)ethylidene)cyclohex-1-en-1-yl)vinyl)-3,3-dimethyl-1-propyl-3H-indol-1-ium 2,2,2-trifluoroacetate]", "values": [{"measurement": "SSB activity of the probe itself", "setting": "U:A-paired DNA; U:A-paired DNA treated with Cy7MX alone (no enzymes)", "value": "no SSB activity"}, {"measurement": "SSB activity", "setting": "U:A-paired DNA; U:A-paired DNA with Cy7MX together with UDG and APE", "value": "the SSB activity was reduced"}, {"measurement": "Φ", "setting": "[1]; CHCl3", "value": 38.2, "unit": "%"}, {"measurement": "λabs", "setting": "[1]; CHCl3", "value": 770, "unit": "nm"}, {"measurement": "λem", "setting": "[1]; CHCl3", "value": 791, "unit": "nm"}, {"measurement": "absorption maximum", "setting": "[1]; CHCl3, MeCN, EtOH and H2O", "value": "~770", "unit": "nm"}, {"measurement": "emission maximum", "setting": "[1]; CHCl3, MeCN, EtOH and H2O", "value": "~790", "unit": "nm"}, {"measurement": "solvatochromic shifts", "setting": "[1]; CHCl3, MeCN, EtOH and H2O", "value": "No solvatochromic shifts were observed"}, {"measurement": "Φ", "setting": "[1]; EtOH", "value": 39.3, "unit": "%"}, {"measurement": "ε", "setting": "[1]; EtOH", "value": "127,000 M−1cm−1"}, {"measurement": "λabs", "setting": "[1]; EtOH", "value": 770, "unit": "nm"}, {"measurement": "λem", "setting": "[1]; EtOH", "value": 796, "unit": "nm"}, {"measurement": "Φ", "setting": "[1]; H2O", "value": 6.6, "unit": "%"}, {"measurement": "ε", "setting": "[1]; H2O", "value": "140,000 M−1cm−1"}, {"measurement": "λabs", "setting": "[1]; H2O", "value": 767, "unit": "nm"}, {"measurement": "λem", "setting": "[1]; H2O", "value": 790, "unit": "nm"}, {"measurement": "Φ", "setting": "[1]; MeCN", "value": 48.7, "unit": "%"}, {"measurement": "ε", "setting": "[1]; MeCN", "value": "154,000 M−1cm−1"}, {"measurement": "λabs", "setting": "[1]; MeCN", "value": 767, "unit": "nm"}, {"measurement": "λem", "setting": "[1]; MeCN", "value": 789, "unit": "nm"}, {"measurement": "stability of Cy7MX with MX", "setting": "[2]; in the presence of light, MX solutions", "value": "decompose Cy7MX rapidly"}, {"measurement": "stability of Cy7MX assay samples", "setting": "[2]; stored in the dark", "value": "stable for at least two days"}]}
